Laboratory results reported in patent US7273873B2, “Camptothecins with a modified lactone ring” (Sigma-Tau Industrie Farmaceutiche Riunite S.p.A., priority 2002, dated 2007).
Like-named read-outs stand apart in the source and are kept apart here.

What was measured:
NCI-H460 = assay: Antiproliferative (cytotoxicity) test, sulforhodamine B, NCI-H460 cells; assay type: cell-based, human
Description: The cytotoxic activity of the compounds according to the present invention has been assayed in cell systems of human tumour cells, using the antiproliferative activity test as the method of evaluating the cytotoxic potential.
The cell line used is a non-microcytoma pulmonary adenocarcinoma called NCI H460, belonging to the NSCLC (non small cell lung cancer) class.
To evaluate the effect of the compounds according to the present invention, their cytotoxocity against the non-microcytoma lung cancer cell line (NCI-H460) was evaluated. Cells from the American Type Culture Collection (ATCC) were maintained in culture in RPMI 1640 (GIBCO) containing 10% foetal calf serum and gentamicin sulphate at a concentration of 50 µg/ml.
The cells were seeded in a volume of 250 μl in 96-well plates and incubated for 24 h at 37° C. The next day the study compounds were added at scalar concentrations from 1 μM to 0.004 μM, and the cells were incubated for another 2 h at 37° C. in a humidified atmosphere containing 5% CO2. The cells were washed 3 times, overturning the plates each time and adding PBS. 200 μl/well of RPMI 1640 medium containing 10% FCS were added and the plates were incubated at 37° C. for a further 72 h. On day 5, the growth medium was removed by overturning the plates, and 200 μl/well of PBS and 50 μl of 80% cold TCA were added. The plates were then incubated in ice for at least 1 h. The TCA was removed by overturning; the plates were washed 3 times by immersion in distilled water and dried first on blotting paper and then under a hot air jet. 200 μl of 0.4% sulforodamine B in 1% acetic acid were added to all wells. The plates were incubated at room temperature for a further 30 minutes. The sulforodamine B was removed by overturning; the plates were washed by immersion 3 times in 1% acetic acid and then dried first on blotting paper and then with a jet of hot air. 200 μl of Tris base 10 mM were added to all wells and the plates were subjected to stirring for at least 20 minutes. The optical density was measured using a Multiskan spectrophotometer at 540 nm.
Table 1 presents the IC50 values, that is to say the concentration capable of inhibiting 50% of cell survival, for each compound examined, processed using ALLFIT software.

[1] = 2 h exposure, 72 h recovery, sulforodamine B, concentration inhibiting 50% of cell survival, read-out: NCI-H460 IC50

SMILES | IC50 (NCI-H460; [1]) [nM] | further results
CCC1(CC(=O)OC(C)(C)C)OC(=O)c2c1cc1n(c2=O)Cc2cc3ccccc3nc2-1 (centres unmarked) [ST2084, Ter-butyl ester of (3-ethyl-1,13-dioxo-11,13-dihydro-1H,3H-furo[3′,4′:6,7]indolizino[1,2-b]quinolin-3-yl)acetic acid] | > 1000 | 
CCC1(CC(=O)O)OC(=O)c2c1cc1n(c2=O)Cc2cc3ccccc3nc2-1 (centres unmarked) [ST2085, (3-ethyl-1,13-dioxo-11,13-dihydro-1H,3H-furor[3′,4′:6,7]indolizino[1,2-b]quinolin-3-yl)acetic acid] | > 1000 | 
CCC1(O)CC(=O)OCc2c1cc1n(c2=O)Cc2c-1nc1ccccc1c2C=NOC(C)(C)C (centres unmarked) [ST2127, R,S-7-(1-t-butoxy)iminomethyl-homocamptothecin] | 26 | 
CCC1(O)CC(=O)OCc2c1cc1n(c2=O)Cc2c-1nc1ccccc1c2/C=N/OCc1ccccc1 (centres unmarked) [ST2143, R,S-7-benzyloxyiminomethyl-homocamptothecin] | 7 | 
CCC1(CC(=O)O)OC(=O)c2c1cc1n(c2=O)Cc2c-1nc1ccccc1c2/C=N/OC(C)(C)C (centres unmarked) [ST2196, {10-[(E)-(ter-butoxyimino)methyl]-3-ethyl-1,13-dioxo-11,13-dihydro-1H,3H-furo[3′,4′:6.7]indolizino[1,2-b]quinolin-3-yl} acetic acid] | > 1000 | 
CCC1(CC(=O)O)OC(=O)c2c1cc1n(c2=O)Cc2c-1nc1ccccc1c2/C=N/OCc1ccccc1 (centres unmarked) [ST2285, (10-{(E)-[(benzyloxy)imino]methyl}-3-ethyl-1,13-dioxo-11,13-dihydro-1H,3H-furo[3′,4′:6,7]indolizino[1,2-b]quinolin-3-yl)-acetic acid] |  | IC50 (NCI-H460; Homo sapiens, NCI-H460, 2 h exposure, 72 h recovery, sulforodamine B, concentration inhibiting 50% of cell survival, read-out: NCI-H460 IC50): > 1000 nM; melting point: 188 °C (dec.)
CCC1(O)CC(=O)OCc2c1cc1n(c2=O)Cc2c-1nc1ccccc1c2C=NOC(C)(C)C (centres unmarked) [ST2523] |  | IC50 (NCI-H460; H460 cells, isolated enantiomers of ST2127, read-out: IC50 (H460)): > 200 nM
